Source: patent US8309577B2, “Quinuclidine compounds as α-7 nicotinic acetylcholine receptor ligands” (Bristol-Myers Squibb Company, priority 2008, dated 2012)

Molecular target: T1, α-7 nicotinic acetylcholine receptor channel expressed in HEK 293 cells (Rattus norvegicus, UniProt Q05941)
T1 construct: expressed in transfected cells
Experiment: Ca2+-sensitive fluorescence-based FLIPR assay, α7 nicotinic ACh receptor channel function (agonist)
Assay type: cell-based
Conditions: Table 1, HEK 293 cells, agonist Ca2+ flux
Method in brief: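 Potency and efficacy derived from kinetic FLIPR Ca²⁺-flux fluorescence, recorded 3 min after compound addition in Hanks buffer following a 10 s baseline.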

[1] = FLIPR α7 activity rating (EC50, nM)

T1 sequence (Q05941 23-502): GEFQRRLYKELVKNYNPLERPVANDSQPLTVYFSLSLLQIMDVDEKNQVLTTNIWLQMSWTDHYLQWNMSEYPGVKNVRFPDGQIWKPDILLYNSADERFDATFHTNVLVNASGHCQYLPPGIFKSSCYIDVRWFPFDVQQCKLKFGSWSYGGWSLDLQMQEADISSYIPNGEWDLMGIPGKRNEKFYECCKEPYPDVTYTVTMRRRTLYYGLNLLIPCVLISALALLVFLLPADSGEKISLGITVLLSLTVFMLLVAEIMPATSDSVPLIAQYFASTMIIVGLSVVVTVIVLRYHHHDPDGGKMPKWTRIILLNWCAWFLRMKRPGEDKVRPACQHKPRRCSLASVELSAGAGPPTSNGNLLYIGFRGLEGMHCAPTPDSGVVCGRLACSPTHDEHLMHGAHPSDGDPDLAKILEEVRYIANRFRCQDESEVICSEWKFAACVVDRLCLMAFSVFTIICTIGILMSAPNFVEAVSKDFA

| Compound | EC50 [1] [nM] | EC50 (FLIPR α7 (EC50, nM)) [nM] |
| --- | --- | --- |
| Fc1ccc2nc(NC3=NC[C@@]4(CN5CCC4CC5)O3)ccc2c1 [Example 140] | 100 to 1000 |  |
| c1csc(-c2cc(NC3=NC[C@@]4(CN5CCC4CC5)O3)n[nH]2)c1 [Example 143] | 100 to 1000 |  |
| Cc1cc(C)c2c(NC3=NC[C@@]4(CN5CCC4CC5)O3)nsc2n1 [Example 145] | 1000 to 100000 |  |
| c1ccc2c(NC3=NC[C@@]4(CN5CCC4CC5)O3)nccc2c1 [Example 146] | 100 to 1000 |  |
| c1ccc2c(NC3=NC[C@@]4(CN5CCC4CC5)O3)ncnc2c1 [Example 147] | 100 to 1000 |  |
| N#Cc1cnc(NC2=NC[C@@]3(CN4CCC3CC4)O2)cn1 [Example 148] | 1000 to 100000 |  |
| COc1cc(NC2=NC[C@@]3(CN4CCC3CC4)O2)nc(OC)n1 [Example 150] | 100 to 1000 |  |
| COc1ccc(-c2cnc(NC3=NC[C@@]4(CN5CCC4CC5)O3)nc2)cc1 [Example 151] | 100 to 1000 |  |
| c1ccc2c(c1)CCc1cnc(NC3=NC[C@@]4(CN5CCC4CC5)O3)nc1-2 [Example 153] | 100 to 1000 |  |
| Brc1cc(NC2=NC[C@@]3(CN4CCC3CC4)O2)ccn1 [Example 154] | 1000 to 100000 |  |
| Brc1cccc(NC2=NC[C@@]3(CN4CCC3CC4)O2)n1 [Example 155] | 100 to 1000 |  |
| Cc1ccc2nc(NC3=NC[C@@]4(CN5CCC4CC5)O3)ccc2c1 [Example 157] | 100 to 1000 |  |
| Fc1cccc2[nH]nc(NC3=NC[C@@]4(CN5CCC4CC5)O3)c12 [Example 158] | 100 to 1000 | 135 |
| Fc1ccc2[nH]nc(NC3=NC[C@@]4(CN5CCC4CC5)O3)c2c1 [Example 159] | < 100 |  |
| c1cc(NC2=NC[C@@]3(CN4CCC3CC4)O2)cnn1 [Example 160] | 1000 to 100000 |  |
| Cc1oc2ncnc(NC3=NC[C@@]4(CN5CCC4CC5)O3)c2c1C [Example 161] | 1000 to 100000 |  |
| COc1ccc(-c2cc(NC3=NC[C@@]4(CN5CCC4CC5)O3)n[nH]2)cc1 [Example 162] | 1000 to 100000 |  |
| FC(F)(F)c1ccc2[nH]nc(NC3=NC[C@@]4(CN5CCC4CC5)O3)c2c1 [Example 163] | < 100 |  |
| FC(F)(F)c1ccc2c(NC3=NC[C@@]4(CN5CCC4CC5)O3)n[nH]c2c1 [Example 164] | 100 to 1000 |  |
| c1ccc2c(NC3=NC[C@@]4(CN5CCC4CC5)O3)n[nH]c2c1 [Example 165] | < 100 | 13 |
| COc1ccc(-c2ccnc(NC3=NC[C@@]4(CN5CCC4CC5)O3)n2)cc1 [Example 166] | < 100 | 11 |

| Compound | EC50 [1] [nM] | EC50 (FLIPR α7 (EC50, nM)) [nM] |
| --- | --- | --- |
| Cc1sc2ncnc(NC3=NC[C@@]4(CN5CCC4CC5)O3)c2c1C [Example 167] | 1000 to 100000 |  |
| Brc1ccc2nc(NC3=NC[C@@]4(CN5CCC4CC5)O3)ncc2c1 [Example 168] | < 100 |  |
| Cc1nc(NC2=NC[C@@]3(CN4CCC3CC4)O2)nc(C)c1Br [Example 171] | < 100 |  |
| COc1cc(C)nc(NC2=NC[C@@]3(CN4CCC3CC4)O2)n1 [Example 172] | 100 to 1000 |  |
| COc1cccc(-c2csc(NC3=NC[C@@]4(CN5CCC4CC5)O3)n2)c1 [Example 173] | 100 to 1000 |  |
| Cc1cc(Cl)cc2sc(NC3=NC[C@@]4(CN5CCC4CC5)O3)nc12 [Example 174] | 100 to 1000 | 245 |
| Cc1cc(C)nc(NC2=NC[C@@]3(CN4CCC3CC4)O2)n1 [Example 176] | 100 to 1000 |  |
| c1ccc2c(c1)CCc1cnc(NC3=NC[C@@]4(CN5CCC4CC5)O3)nc1-2 [Example 177] | < 100 |  |
| COc1nc(NC2=NC[C@@]3(CN4CCC3CC4)O2)ncc1Br [Example 178] | < 100 | 17 |
| COc1ccc2nc(NC3=NC[C@@]4(CN5CCC4CC5)O3)c(C)cc2c1 [Example 179] | 100 to 1000 |  |
| Cc1cc(-c2ccccc2)nc(NC2=NC[C@@]3(CN4CCC3CC4)O2)n1 [Example 180] | 100 to 1000 |  |
| Cc1nnc(NC2=NC[C@@]3(CN4CCC3CC4)O2)nc1C [Example 182] | 100 to 1000 |  |
| FC(F)(F)Oc1ccc2[nH]nc(NC3=NC[C@@]4(CN5CCC4CC5)O3)c2c1 [Example 183] | < 100 |  |
| Cc1cnc(NC2=NC[C@@]3(CN4CCC3CC4)O2)c(C)n1 [Example 186] | 100 to 1000 |  |
| Cc1nc(NC2=NC[C@@]3(CN4CCC3CC4)O2)sc1C [Example 187] | 100 to 1000 | 424 |
| c1ccc(-c2n[nH]c(NC3=NC[C@@]4(CN5CCC4CC5)O3)n2)cc1 [Example 188] | 1000 to 100000 |  |
| Cc1nc(NC2=NC[C@@]3(CN4CCC3CC4)O2)sc1-c1ccccc1 [Example 189] | 100 to 1000 |  |
| Cn1ccc(NC2=NC[C@@]3(CN4CCC3CC4)O2)n1 [Example 190] | 1000 to 100000 |  |
| Cc1cnc(NC2=NC[C@@]3(CN4CCC3CC4)O2)nc1-c1ccccc1 [Example 191] | < 100 |  |
| c1ccc(-c2ccnc(NC3=NC[C@@]4(CN5CCC4CC5)O3)n2)nc1 [Example 192] | 100 to 1000 |  |
| Brc1cnc(NC2=NC[C@@]3(CN4CCC3CC4)O2)nc1-c1ccccc1 [Example 193] | < 100 | 17 |

| Compound | EC50 [1] [nM] | EC50 (FLIPR α7 (EC50, nM)) [nM] |
| --- | --- | --- |
| c1cncc(-c2ccnc(NC3=NC[C@@]4(CN5CCC4CC5)O3)n2)c1 [Example 194] | < 100 | 18 |
| c1ccc(-c2nc(NC3=NC[C@@]4(CN5CCC4CC5)O3)ncc2-n2cncn2)cc1 [Example 195] | 1000 to 100000 |  |
| c1ccc2c(c1)OCc1cnc(NC3=NC[C@@]4(CN5CCC4CC5)O3)nc1-2 [Example 196] | < 100 | 13 |
| Fc1ccc(NC2=NC[C@@]3(CN4CCC3CC4)O2)nc1 [Example 197] | < 100 |  |
| Brc1ccc(NC2=NC[C@@]3(CN4CCC3CC4)O2)nc1 [Example 198] | < 100 | 15 |
| COc1cc(NC2=NC[C@@]3(CN4CCC3CC4)O2)ccn1 [Example 199] | 1000 to 100000 |  |
| Fc1ccc2nc(NC3=NC[C@@]4(CN5CCC4CC5)O3)sc2c1 [Example 200] | < 100 |  |
| c1nc(NC2=NC[C@@]3(CN4CCC3CC4)O2)nc2c1CCCC2 [Example 201] | < 100 |  |
| c1nc(NC2=NC[C@@]3(CN4CCC3CC4)O2)nc2c1CCC2 [Example 202] | < 100 | 16 |
| Cc1nc(NC2=NC[C@@]3(CN4CCC3CC4)O2)nc(Cl)c1C [Example 203] | < 100 |  |
| O=C1CCCc2nc(NC3=NC[C@@]4(CN5CCC4CC5)O3)ncc21 [Example 204] | 100 to 1000 |  |
| N#Cc1ccnc(NC2=NC[C@@]3(CN4CCC3CC4)O2)c1 [Example 205] | 100 to 1000 |  |
| FC(F)(F)c1cccc2c(NC3=NC[C@@]4(CN5CCC4CC5)O3)n[nH]c12 [Example 206] | 1000 to 100000 |  |
| c1ccc(-c2ccc(NC3=NC[C@@]4(CN5CCC4CC5)O3)nc2)cc1 [Example 207] | 100 to 1000 |  |
| COc1ccc2c(c1)nc(NC1=NC[C@@]3(CN4CCC3CC4)O1)n2C [Example 208] | 1000 to 100000 |  |
| c1cc(C2CC2)nc(NC2=NC[C@@]3(CN4CCC3CC4)O2)n1 [Example 209] | < 100 |  |
| Brc1cnc(NC2=NC[C@@]3(CN4CCC3CC4)O2)nc1C1CC1 [Example 210] | < 100 | 9 |
| COc1ccc2c(NC3=NC[C@@]4(CN5CCC4CC5)O3)nn(C)c2c1 [Example 211] | 100 to 1000 |  |
| COc1ccc2c(c1)c(NC1=NC[C@@]3(CN4CCC3CC4)O1)nn2C [Example 212] | 1000 to 100000 |  |
| Clc1cnc(NC2=NC[C@@]3(CN4CCC3CC4)O2)nc1 [Example 213] | < 100 | 9 |
| Clc1ccc(NC2=NC[C@@]3(CN4CCC3CC4)O2)nc1 [Example 214] | < 100 |  |
